For data set [1] the following is noted: review of the art; cited from earlier work.
A further data set has as its system air-breathing mammals. Kind of data set: Inhalation anesthetic properties of the compounds. In kind it is in vivo. The note with it: for Convulsions and death: administered in concentrations within the useful range; for Inhalation anesthetic properties: in vivo. Here is the method:
(§1) In this test, mice were exposed to the compounds for a period of 10 minutes in a rotating drum. Observations were then made of the pinch reflex, the corneal reflex and the return of the righting reflex. At least four graded doses were employed to determine the minimum concentration required to anesthetize 50% of the mice used (AC50) and the minimum concentration required to kill 50% of the mice (LC50). The anesthetic index (AI) was then calculated from these minimum concentrations. The data obtained with the compounds of Examples I to XIII are presented in Table 2 along with, for comparison purposes, results obtained from similar testing of 1,2-dihydrohexafluorocyclobutane, the compound of the prior art, a closely related analog, 1,1,2,2-tetrafluorocyclobutane, and another chlorofluoro anesthetic, 1,1,2-trichloro-2,3,3-trifluorocyclobutane.

A short description of data set [2]: Standard test for evaluation of inhalation anesthetics (rotating drum, 10 minutes exposure; AC50, LC50, AI). The data set is classed as in vivo, mice. The note with it: mouse, in vivo, inhaled or intranasal, calculated from AC50 and LC50, mice; read-out: AI (anesthetic index). As to the method:
as §1

Data set [3] concerns mice. Described as above. In kind it is in vivo. The note with it: for AC50 (minimum concentration required to anesthetize 50% of the mice) / LC50 (minimum concentration required to kill 50% of the mice): inhalation, 10 minutes exposure in rotating drum, where two percentages are given the actual vapor concentration lies between them. As to the method:
as §1

Data set [4] concerns mice. Kind of data set: Observation after exposure: survival, delayed death, convulsions. In kind it is in vivo. As to the method: as §1
In contrast to these findings, all test mice used in Example I to X were still living one week after exposure.
This compound, which is one of the numerous halogenated cyclobutanes that have been found deleterious, is of particular interest in that its close structural relationship to the 1,2-dihydrohexafluorocyclobutane isomers of the art and to the useful trifluoro (Ex. VII) homolog disclosed above provides a good illustration of the unpredictability in physiological behavior in the field of anesthesia.

For data set [5] the following is noted: cis- and trans- isomers, values reported by Burns et al; cited from earlier work.

Regarding `FC1(F)C(F)(F)C(F)(Cl)C1(F)Cl` (centres unmarked) [1,2-dichlorohexafluoro-], the “Anesthetic properties / toxicity in the prior art” value (“Anesthetic properties / toxicity” below) in data set [1] was “toxic”.
With `FC1C(F)C(F)(F)C1(F)F` (centres unmarked) [1,2-dihydrohexafluoro-, 1,2-dihydrohexafluorocyclobutane], the “Anesthetic properties / toxicity” value in data set [1] was “said to possess anesthetic properties”.
`FC1(F)CC(Cl)C1(F)Cl` (centres unmarked) [1,4-dichloro-1,2,2-trifluorocyclobutane]: in the data set on air-breathing mammals, the Convulsions and death entry is “not cause convulsions and death”; the Inhalation anesthetic properties result is reported as “found to possess inhalation anesthetic properties”.
For the molecule `FC1(F)CC(Cl)C1(F)Br` (centres unmarked) [Example X, 1-bromo-2-chloro-1,4,4-trifluorocyclobutane], in the data set with air-breathing mammals, the Convulsions and death result was “not cause convulsions and death”; the Inhalation anesthetic properties result is on record as “found to possess inhalation anesthetic properties”. In data set [2], the selectivity ratio at 10 min was at least 2.5. In addition, in the data set with mice [3], the “AC50 (minimum concentration required to anesthetize 50% of the mice)” value is on record as under 0.2 % volume and the “LC50 (minimum concentration required to kill 50% of the mice)” value is recorded as 0.5 % volume.
For the molecule `FC1(F)CCC1(F)F` [Example XII, 1,1,2,2-tetrafluorocyclobutane, reference compound], the selectivity ratio at 10 min in data set [2] was 3. Moreover, in the data set with mice [3], the “AC50 (minimum concentration required to anesthetize 50% of the mice)” value came out at 4 % volume and the “LC50 (minimum concentration required to kill 50% of the mice)” value amounted to 12 % volume. Further, the Convulsions entry in the data set with mice [4] (on further observation) was “proved to be a convulsant on further observation”.
In the case of `FC1(F)CC(Cl)C1(F)Cl` (centres unmarked) [I, b.p. 104°C], in the data set with mice [3] (calculated from AC50 and LC50, mice, 10 min), the “AI (anesthetic index)” value was 4. In the data set with mice [3], the “AC50 (minimum concentration required to anesthetize 50% of the mice)” value was 0.2 % volume and the “LC50 (minimum concentration required to kill 50% of the mice)” value was 0.8 % volume.
`FC1(F)CC(Cl)C1(F)Cl` (centres unmarked) [I, b.p. 107°C]: the selectivity ratio at 10 min in data set [2] is 6. Moreover, in the data set with mice [3], the “AC50 (minimum concentration required to anesthetize 50% of the mice)” value was determined as 0.2 % volume and the “LC50 (minimum concentration required to kill 50% of the mice)” value was found to be 1.2 % volume.
`FC1CC(F)(F)C1(F)Cl` (centres unmarked) [II, 1-chloro-1,2,2,4-tetrafluorocyclobutane]: in the data set with air-breathing mammals, the Convulsions and death result is “not cause convulsions and death”; the Inhalation anesthetic properties entry is “found to possess inhalation anesthetic properties”. Moreover, the selectivity ratio at 10 min in data set [2] was at least 6. In addition, in the data set on mice [3], the “AC50 (minimum concentration required to anesthetize 50% of the mice)” value is reported as 0.5 % volume and the “LC50 (minimum concentration required to kill 50% of the mice)” value is listed as 3-3.5 % volume.
In the case of `FC1(F)CC(F)(Cl)C1(F)Cl` (centres unmarked) [III, 1,4-dichloro-1,2,2,4-tetrafluorocyclobutane], in the data set with air-breathing mammals, the Convulsions and death result is “not cause convulsions and death”; the Inhalation anesthetic properties entry is reported as “found to possess inhalation anesthetic properties”. In addition, the selectivity ratio at 10 min in data set [2] was at least 1. Moreover, in the data set with mice [3], the “AC50 (minimum concentration required to anesthetize 50% of the mice)” value is 0.43-2 % volume and the “LC50 (minimum concentration required to kill 50% of the mice)” value is on record as 2-3 % volume.
On to `FC1C(Cl)CC1(F)F` (centres unmarked) [IV, 1-chloro-2,3,3-trifluorocyclobutane], for which, in the data set on air-breathing mammals, the Convulsions and death entry was “not cause convulsions and death”; the Inhalation anesthetic properties result is recorded as “found to possess inhalation anesthetic properties”. For the same molecule, in data set [2], the selectivity ratio at 10 min was at least 4. Moreover, in the data set on mice [3], the “AC50 (minimum concentration required to anesthetize 50% of the mice)” value was 0.75-1 % volume and the “LC50 (minimum concentration required to kill 50% of the mice)” value was at least 4 % volume.
With `CC1CC(F)(F)C1(F)Br` (centres unmarked) [IX, 1-bromo-2-methyl-1,4,4-trifluorocyclobutane], in the data set with air-breathing mammals, the Convulsions and death entry is “not cause convulsions and death”; the Inhalation anesthetic properties result is listed as “found to possess inhalation anesthetic properties”. Further, the selectivity ratio at 10 min in data set [2] was at least 1.5. In the data set on mice [3], the “AC50 (minimum concentration required to anesthetize 50% of the mice)” value is 0.5-1 % volume and the “LC50 (minimum concentration required to kill 50% of the mice)” value is 1.5-1.75 % volume.
`FC1(F)CC(F)(Cl)C1(F)F` (centres unmarked) [V, 1-chloro-1,2,2,3,3-pentafluorocyclobutane]: in the data set on air-breathing mammals, the Convulsions and death result is “not cause convulsions and death”; the Inhalation anesthetic properties result is “found to possess inhalation anesthetic properties”. Also, in data set [2], the selectivity ratio at 10 min was 5. Also, in the data set on mice [3], the “AC50 (minimum concentration required to anesthetize 50% of the mice)” value amounted to 2 % volume and the “LC50 (minimum concentration required to kill 50% of the mice)” value is 10 % volume.
For the molecule `FC1CC(F)(F)C1Cl` (centres unmarked) [VI, 1-chloro-2,4,4-trifluorocyclobutane], in the data set on air-breathing mammals, the Convulsions and death result is “not cause convulsions and death”; the Inhalation anesthetic properties result is given as “found to possess inhalation anesthetic properties”. Also, in data set [2], the selectivity ratio at 10 min is at least 2. In the data set with mice [3], the “AC50 (minimum concentration required to anesthetize 50% of the mice)” value is recorded as under 1 % volume and the “LC50 (minimum concentration required to kill 50% of the mice)” value turned out to be 2 % volume.
In the case of `FC1CCC1(F)F` (centres unmarked) [VII, 1,2,2-trifluorocyclobutane], in the data set with air-breathing mammals, the Convulsions and death result is “not cause convulsions and death”; the Inhalation anesthetic properties result is reported as “found to possess inhalation anesthetic properties”. The selectivity ratio at 10 min in data set [2] is at least 2. Moreover, in the data set with mice [3], the “AC50 (minimum concentration required to anesthetize 50% of the mice)” value is on record as under 4 % volume and the “LC50 (minimum concentration required to kill 50% of the mice)” value was determined as 8 % volume.
For the molecule `FC1(F)CCC1(F)Br` (centres unmarked) [VIII, 1-bromo-1,2,2-trifluorocyclobutane], in the data set with air-breathing mammals, the Convulsions and death result was “not cause convulsions and death”; the Inhalation anesthetic properties entry is “found to possess inhalation anesthetic properties”. Moreover, in data set [2], the selectivity ratio at 10 min was at least 7. Further, in the data set with mice [3], the “AC50 (minimum concentration required to anesthetize 50% of the mice)” value was under 0.5 % volume and the “LC50 (minimum concentration required to kill 50% of the mice)” value came to 3.5 % volume.
On to `FC1C(F)C(F)(F)C1(F)F` (centres unmarked) [XI, b.p. 26°], for which the “AC50 (anesthetic concentration)” value in data set [5] was 10.5 % volume.
Turning to `FC1C(F)C(F)(F)C1(F)F` (centres unmarked) [XI, b.p. 63°], the “AC50 (anesthetic concentration)” value in data set [5] was 1.9 % volume.
Consider `FC1(F)CC(Cl)(Cl)C1(F)Cl` (centres unmarked) [XIII, 1,1,2-trichloro-2,3,3-trifluorocyclobutane, reference compound], for which the selectivity ratio at 10 min in data set [2] was 5. In the data set on mice [3], the “AC50 (minimum concentration required to anesthetize 50% of the mice)” value was 0.2 % volume and the “LC50 (minimum concentration required to kill 50% of the mice)” value worked out at 1 % volume. In addition, in the data set with mice [4] (mice, retested in the manner of Examples I to X, XII and XIII, after apparent recovery from anesthesia), the Delayed death entry is given as “The same "delayed death" phenomenon has been observed”.
Regarding `C1CC1` [cyclopropane], the “Anesthetic properties / toxicity” value in data set [1] is recorded as “effective if inflammable anesthetic”.
Turning to `FC(F)(F)C(Cl)Br` (centres unmarked) [halothane, reference compound], the selectivity ratio at 10 min in data set [2] is about 3.
`FC1(F)C(F)(F)C(F)(F)C1(F)F` [octafluoro-]: the “Anesthetic properties / toxicity” value in data set [1] was “inactive”.

The record behind these values is patent US3954893A, “New halogenated cyclobutanes” (W. R. Grace & Co., priority 1975, dated 1976).
